Consider one compound from US8889724B2, “Tetrazole compounds for reducing uric acid” (Wellstat Therapeutics Corporation, priority 2008, dated 2014).

As usually defined, the inhibition is the share of the control response that was lost under treatment. For orientation: pIC50 means the IC50 on a negative log10 scale, so that one unit is a factor of ten. Low readings indicate a high IC50, high ones a low IC50. What is called Cmax is the highest concentration seen after dosing.

pIC50: −log10 of the molar value. Several values for one entry are separate records, joined by “and”; a condition that tells them apart may be missing. Identical values can stand only once.

One series addresses human URAT1 (Homo sapiens (Human), UniProt Q96S37). Put plainly: URAT1 inhibition assay: [8-14C] urate uptake in hURAT1-HEK cells. Type of series: cell-based. The procedure:
URAT1 (Uric Acid Transporter 1) is expressed on the apical membrane in renal tubules. It mediates the re-uptake of uric acid from the urine into the blood.
A suitable assay involves transfection of cells (e g human embryonic kidney cells; “HEK”) with a vector encoding human URAT1, followed by determination of the ability of transfected cells to take up radiolabeled uric acid. The activity of compounds as URAT1 inhibitors is evaluated by their ability to block uric acid uptake by transfected cells.
Test Compounds and Chemicals:
Urate (50-60 mCi/mmol; American Radio Chemicals, Cat. No. ARC0513).
Subcloning of hURAT1 into the Expression Vector:
Plasmid vector pCMV6-XL5 containing hURAT1 cDNA (Cat. No. SC125624) and the expression vector pCMV6-Neo (Cat. No. pCMVNEO) were obtained from OriGene Technologies, Inc. The full-length hURAT1 cDNA was obtained from the vector pCMV6-XL5 and subcloned into the expression vector pCMV6-Neo to create the hURAT1 expression plasmid pCMV6-hURAT1. The sequences were verified by automatic DNA sequencing.
Cell Culture, Transfection of URAT1 Expressing Plasmids and the Establishment of Stably Expressing HEK Cells for hURAT1:
For transfection experiments, cells were plated on 60 mm dishes in 1 ml media per dish. […] Stable transfectants expressing hURAT1 (herein after referred as hURAT1-HEK cells) or cells having only the expression vector pCMV6-Neo (herein after referred as mock-HEK cells) were verified using reverse transcription polymerase chain reaction (RT-PCR) methods.
[8-^14C] Urate Uptake Assay:
Before the uptake assay started, the culture medium was removed and the cells were incubated for 5 min in 0.6 ml of HBSS. After that HBSS was removed, the prepared reaction solutions were added into each well and incubated for 5 min at room temperature. Then the reaction solution was removed, cells were washed twice with 0.6 ml of cold HBSS and lysed with 0.2 ml of 0.1 M NaOH for 20 min. […] Test compounds were dissolved in DMSO and the same concentration of DMSO was added into the wells of mock-HEK cells and the hURAT1-HEK cells that didn't contain test compounds. For each test compound, the uptake assay was performed 2 times and carried out in triplicate. Urate uptake of the cells for each test condition was presented as the average percent inhibition in comparison to the DMSO control. The radioactivity values obtained for the wells that contained DMSO were taken as 100% uptake of the cells. The observed concentration-percent inhibition data were fitted to a sigmoidal concentration-effect model, where: % Inhibition=(100*Conc^Slope)/(IC50^Slope+Conc^Slope)
In this example the compounds were not necessarily tested simultaneously.

Series [1] is described as follows: Rat pilot single-dose oral pharmacokinetic study with Compound EB. It is filed as in vivo. The settings on record: 100 mg/kg single oral gavage; for Compound EB concentration in plasma, individual rats: male Sprague-Dawley rat. As to the method:
Rat Pilot Single-Dose Oral Pharmacokinetic Study with Compound EB
Determination of the plasma profile of Compound EB following single oral gavage administration to male rats.
Test compound was suspended in 1% HPMC using a tissue homogenizer to minimize particles and maximize uniformity of the suspension and stored at 4° C. The formulations was thoroughly mixed just prior to administration. A dose of 100 mg/kg of test compounds or vehicle (1% HPMC) was administered to male Sprague-Dawley rats by single oral gavage. […] The blood samples were centrifuged within 30 minutes of collection under refrigeration (2-8° C.) for 7 minutes at 6000 rpm. Following centrifugation, the plasma were harvested into a single tube for each animal at each time point and immediately frozen at −80° C. until analyzed using LC/MS-MS. Serial plasma concentration time data was subjected to pharmacokinetic analyses using WinNonlin Standard (v2.1, Pharsight Corporation) and Microsoft EXCEL.
1. Rats received single oral gavage of Compound EB, 100 mg/kg, and plasma was collected at certain times.
2. Plasma was stored at −80° C. until the day of analysis.
3. Samples were thawed on 37° C. bath for 5 min and vortexed at top speed for 10 sec.
4. Rat plasma, 0.1 mL was mixed with 0.2 mL Acetonitrile, vortexed 1 min, spun down 14000 rpm, 17000 g, at 4° C., for 25 min.
5. Supernatants were filtered through 0.45 micron, 4 mm, PTFE membrane syringe filter (Phenomenex # AF0-3102-52), and 13 microL were injected and resolved on Luna 3 micron, 100 A pore, C8(2), 150×3 mm, reverse phase column (Phenomenex#00F-4248-YO, SN#259151-7) in 50 min linear gradient from 40% to 69% of (0.1% Formic Acid, 89.9% Acetonitrile, 10% Methanol) at 0.25 mL/min, 100 bar, 37° C. column temperature, method 406975M1, AGILENT sequence 1015-08A, Agilent 1100 LC-MS.
All samples were run in duplicate, 210 nm and 230 nm Absorbances, Negative and Positive ionization spectrograms were recorded.
Step 1. Plasma from “Vehicle” animals (pooled), 0.19 mL, was mixed with 0.01 mL 20× stock of PN2107 in Methanol to make 500 microM, 250 microM, 125 microM, . . . , concentrations of Compound EB in plasma.
For example: 190 microL plasma+10 microL of 10 mM Compound EB in methanol=0.2 mL plasma with 500 microM Compound EB.
Step 2. Samples from step 1 were vortexed for 10 sec at top speed.
Step 3. 0.4 mL of acetonitrile was added to all samples from Step 2, and all vials were vortexed at top speed for 1 min.
Step 4. All samples from step 3 were spun down 14000 rpm, 17000 g, at 4° C., for 25 min.
Step 5. Supernatants were filtered through 0.45 micron, 4 mm, PTFE membrane syringe filter (Phenomenex # AF0-3102-52), 13 microL were injected and resolved on Luna 3 micron, 100 A pore, C8(2), 150×3 mm, reverse phase column (Phenomenex#00F-4248-YO, SN#259151-7) in 50 min linear gradient from 40% to 69% of (0.1% Formic Acid, 89.9% Acetonitrile, 10% Methanol) at 0.25 ml/min, 100 bar, 37° C. column temperature.

Sequence of human URAT1 (Q96S37 whole entry): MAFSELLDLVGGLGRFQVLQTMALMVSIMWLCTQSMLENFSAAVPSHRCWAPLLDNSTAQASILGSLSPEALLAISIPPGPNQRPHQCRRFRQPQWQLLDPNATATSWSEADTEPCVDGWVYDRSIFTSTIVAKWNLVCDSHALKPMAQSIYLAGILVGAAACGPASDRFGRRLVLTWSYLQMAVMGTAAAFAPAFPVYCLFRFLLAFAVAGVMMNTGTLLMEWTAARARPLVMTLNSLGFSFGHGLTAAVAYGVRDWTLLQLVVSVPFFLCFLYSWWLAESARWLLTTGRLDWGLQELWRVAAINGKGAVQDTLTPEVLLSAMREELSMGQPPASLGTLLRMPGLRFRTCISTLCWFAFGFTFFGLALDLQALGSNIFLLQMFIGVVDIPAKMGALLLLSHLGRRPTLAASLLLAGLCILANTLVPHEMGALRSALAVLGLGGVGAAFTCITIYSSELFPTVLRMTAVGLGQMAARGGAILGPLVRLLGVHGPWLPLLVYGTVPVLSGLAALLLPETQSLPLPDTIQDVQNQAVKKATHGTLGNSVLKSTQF

At human URAT1 (10 μM, hURAT1-HEK cells), `Cc1cccc(C)c1COc1cccc(-c2nnn[nH]2)c1` [Compound EB, 5-(3-(2,6-Dimethylbenzyloxy)phenyl)-1H-tetrazole] yielded an inhibition at 10 µM of 90%. For the same compound, the negative-log IC50 (pIC50) at human URAT1 (14C urate uptake in hURAT1-HEK cells) was 6.03. Further, in series [1] (LC-MS), the “Detection in rat plasma (in words)” value is “readily detected”. The peak concentration (Cmax) in series [1] (Sprague-Dawley, rat, male rats, plasma) was found to be 108 µg/mL. Further, the AUC(0-t) in series [1] (Sprague-Dawley, rat, male rats, plasma, read-out: AUC 0-24) amounted to 566 µg·h/mL. Besides, the half-life in series [1] (Sprague-Dawley, rat, male rats, plasma, read-out: T ½) turned out to be 239 min. For the same compound, the “Compound EB concentration in plasma, individual rats” value was 386 µM and 103 µM in series [1] (1 HR); 75 µM and 206 µM in series [1] (2 HR); 24 µM and 112 µM in series [1] (4 HR); 26 µM and 92 µM in series [1] (6 HR); 72 µM and 202 µM in series [1] (8 HR); 0 µM and 17 µM in series [1] (24 HR). Also, the “Compound EB concentration in plasma, individual rats” value is 184 µM and 159 µM in series [1] (15 min); 37 µM and 125 µM in series [1] (30 min). In series [1] (male, Sprague-Dawley, rat plasma, time 0, read-out: Compound EB concentrations, averages), the concentration at 0 h is 0 nM and 0 ng/mL. The concentration at 0.25 h in series [1] (male, Sprague-Dawley, rat plasma, time 0.25, read-out: Compound EB concentrations, averages) is 172 µM and 48000 ng/mL. In addition, in series [1] (male, Sprague-Dawley, rat plasma, time 0.5, read-out: Compound EB concentrations, averages), the concentration at 0.5 h was 81 µM and 22700 ng/mL. Further, in series [1] (male, Sprague-Dawley, rat plasma, time 1, read-out: Compound EB concentrations, averages), the concentration at 1 h was 244 µM and 68500 ng/mL. For the same compound, in series [1] (male, Sprague-Dawley, rat plasma, time 2, read-out: Compound EB concentrations, averages), the concentration at 2 h is 140 µM and 39300 ng/mL. The concentration at 4 h in series [1] (male, Sprague-Dawley, rat plasma, time 4, read-out: Compound EB concentrations, averages) is 68 µM and 19000 ng/mL. Moreover, in series [1] (male, Sprague-Dawley, rat plasma, time 6, read-out: Compound EB concentrations, averages), the concentration at 6 h is 59 µM and 16500 ng/mL. Also, in series [1] (male, Sprague-Dawley, rat plasma, time 8, read-out: Compound EB concentrations, averages), the concentration at 8 h is 137 µM and 38400 ng/mL. The concentration at 24 h in series [1] (male, Sprague-Dawley, rat plasma, time 24, read-out: Compound EB concentrations, averages) is 8.5 µM and 2380 ng/mL.
